The values that follow come from ChEMBL document CHEMBL1153323, “Design, synthesis, and evaluation of peptidomimetics containing Freidinger lactams as STAT3 inhibitors” (Bioorg Med Chem Lett, 2009).

SMILES strings stand for the structures. Where a SMILES comes first, the peptide text is derived from it. [ ]: non-standard residue; d: D form. The star is where a group is joined. pY = N[C@@H](Cc1ccc(OP(=O)(O)O)cc1)C(=O)O; Cbz = O=C(OCc1ccccc1)*; NHBn = c1ccc(CN*)cc1

The target of this assay is Signal transducer and activator of transcription 3 (Homo sapiens, UniProt P40763). Briefly: Displacement of fluorescent tagged beta-(Ala)-beta-(Ala)-G-pYLPQTV from human recombinant STAT3 by fluorescence polarization assay. (In fluorescence polarisation assays a small probe gives low polarisation when free and higher when bound to something large.)
Chain of Signal transducer and activator of transcription 3 (P40763 whole entry): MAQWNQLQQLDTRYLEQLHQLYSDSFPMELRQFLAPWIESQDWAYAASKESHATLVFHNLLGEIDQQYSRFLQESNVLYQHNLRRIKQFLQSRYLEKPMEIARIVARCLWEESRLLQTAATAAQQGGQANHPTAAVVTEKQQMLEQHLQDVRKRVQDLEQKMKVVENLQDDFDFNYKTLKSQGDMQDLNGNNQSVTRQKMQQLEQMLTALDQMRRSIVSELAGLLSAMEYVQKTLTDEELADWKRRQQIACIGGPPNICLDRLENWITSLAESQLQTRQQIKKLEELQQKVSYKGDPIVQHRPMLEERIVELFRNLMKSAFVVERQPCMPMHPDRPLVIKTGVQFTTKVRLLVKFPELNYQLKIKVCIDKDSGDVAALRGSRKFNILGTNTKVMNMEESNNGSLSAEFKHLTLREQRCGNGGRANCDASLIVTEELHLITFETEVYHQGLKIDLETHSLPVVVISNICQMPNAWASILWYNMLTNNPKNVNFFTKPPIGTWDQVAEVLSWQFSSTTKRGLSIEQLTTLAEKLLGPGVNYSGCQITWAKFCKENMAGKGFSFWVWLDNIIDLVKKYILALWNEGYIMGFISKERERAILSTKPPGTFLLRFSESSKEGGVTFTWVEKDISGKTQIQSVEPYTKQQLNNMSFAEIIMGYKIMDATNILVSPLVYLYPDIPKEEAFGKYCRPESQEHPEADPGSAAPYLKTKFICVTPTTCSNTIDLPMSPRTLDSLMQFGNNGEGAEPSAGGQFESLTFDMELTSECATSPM
As usually defined, the Ki is the dissociation constant of the complex between target and ligand, obtained from inhibition or displacement. As to `NC(=O)CC[C@H](NC(=O)CN1CCCC[C@H](NC(=O)[C@H](Cc2ccc(OP(=O)(O)O)cc2)NC(=O)OCc2ccccc2)C1=O)C(=O)NCc1ccccc1`, the Ki stood at 190 nM.

For `NC(=O)CC[C@H](NC(=O)CN1CCC[C@H](NC(=O)[C@H](Cc2ccc(OP(=O)(O)O)cc2)NC(=O)OCc2ccccc2)C1=O)C(=O)NCc1ccccc1`, the inhibition constant (Ki) was 3130 nM.

In the case of `CC(C)C[C@H](NC(=O)[C@H](Cc1ccc(OP(=O)(O)O)cc1)NC(=O)OCc1ccccc1)C(=O)N1CCC[C@H]1C(=O)N[C@@H](CCC(N)=O)C(=O)NCc1ccccc1` (Cbz-[pY]LPQ-NHBn), the Ki worked out at 350 nM.
